Consider seven compounds from paper PMC7352922, “Norditerpenoids with Selective Anti-Cholinesterase Activity from the Roots of Perovskia atriplicifolia Benth” (International Journal of Molecular Sciences, 2020).

“And” between values parts separate entries of the source, which are not always exact repeats. Identical values can stand only once. Counter-ions that a name gives are not always drawn. Like-named read-outs stand apart in the source and are kept apart here.

Series [1] has as its system several cancer cell lines. As to conditions: isolated from rhizomes of Salvia tebesana Bunge; cited from earlier work.
Series [2] concerns the target T1, horse serum butyrylcholinesterase (Equus caballus, UniProt P81908).
T1 construct: horse serum butyrylcholinesterase (EC 3.1.1.8, Sigma, St. Louis, MO, USA); purchased Sigma, St. Louis, MO, USA; host or cells: horse serum
The series is described as follows: biochemical. Conditions: for inhibition at 10 µg/mL: read-out: % Inhibition ± S.D. at 10.0 µg·mL^−1 BChE; for IC50: read-out: BChE Inhibition IC50 (converted). On the procedure: (§1) A modified spectrophotometric method of Ellman et al. was used for the determination of inhibitory activity against AChE and BChE. Electric eel acetylcholinesterase (Type-VI-S, EC 3.1.1.7, Sigma, St. Louis, MO, USA) and horse serum butyrylcholinesterase (EC 3.1.1.8, Sigma, St. Louis, MO, USA) were used as the test enzymes and acetylthiocholine iodide and butyrylthiocholine chloride (Sigma, St. Louis, MO, USA) were employed as the respective substrates. The ChE activity was evaluated with the detection reagent 5,5′-dithio-bis(2-nitrobenzoic) acid (DTNB, Sigma, St. Louis, MO, USA). All the other reagents and conditions were the same as described in our previous publication. In brief, the following reaction mixture was added by a multichannel automatic pipette (Gilson Pipetman, Villiers Le Bel, France) in a 96-well microplate and incubated for 15 min at 25 °C: 140 µL of […] sodium phosphate buffer (pH 8.0), 20 µL of […] DTNB, 20 µL of sample solutions (0.1–10 µg/mL) and 20 µL of acetylcholinesterase/butyrylcholinesterase solution (0.2 µM). The reaction was then initiated with the addition of 10 µL of acetylthiocholine iodide or butyrylthiocholine chloride (2 mM). […] Galanthamine (Sigma, St. Louis, MO, USA)—an alkaloid isolated from snowdrop—was employed as the reference inhibitory drug.
(§2) The measurements and calculations were performed using SoftMax PRO 4.3.2.LS software (Molecular Devices, San Jose, CA, USA). […] The extent of the enzymatic reaction was calculated based on the following equation: E = (C − T)/C × 100, where E is the activity of the enzyme. E expresses the effect of the test sample or the positive control on acetylcholinesterase and butyrylcholinesterase enzyme activity expressed as the percentage of the […] in the presence of the test sample or positive control. C is the absorbance of the control solvent (blank) in the presence of an enzyme, and T is the absorbance of the tested sample (plant extract or positive control in the solvent) in the presence of an enzyme.
(§3) Statistical differences between the reference and the sample groups were evaluated by one-way ANOVA (Statistica 13PL, StatSoft, Cracow, Poland) with Dunnett’s multiple comparison post-hoc test for which p < 0.05 was considered to be significant (* p < 0.05; ** p < 0.01; *** p < 0.001, **** p < 0.0001).

The target of series [3] is T2, Electric eel acetylcholinesterase (Electrophorus electricus, UniProt O42275).
T2 construct: purchased Sigma, St. Louis, MO, USA Type-VI-S
Nature of the series: biochemical. Conditions: for inhibition at 10 µg/mL: read-out: % Inhibition ± S.D. at 10.0 µg·mL^−1 AChE, at 10.0 µg·mL^−1; for IC50: read-out: AChE IC50. On the procedure:
as §1, §2, §3

The target of series [4] is T1, horse serum butyrylcholinesterase. The series is described as follows: biochemical. As to conditions: BChE; for assumed competitive inhibition, substrate concentration = 1 mM; read-out: Ki app.
Series [5] has as its system cholinesterase. Conditions: cited from earlier work.

A word on the inhibition: it is the drop in the measured response relative to a control, in per cent. For orientation: IC50 means the midpoint of a concentration-inhibition curve.

T1 sequence (P81908 whole entry): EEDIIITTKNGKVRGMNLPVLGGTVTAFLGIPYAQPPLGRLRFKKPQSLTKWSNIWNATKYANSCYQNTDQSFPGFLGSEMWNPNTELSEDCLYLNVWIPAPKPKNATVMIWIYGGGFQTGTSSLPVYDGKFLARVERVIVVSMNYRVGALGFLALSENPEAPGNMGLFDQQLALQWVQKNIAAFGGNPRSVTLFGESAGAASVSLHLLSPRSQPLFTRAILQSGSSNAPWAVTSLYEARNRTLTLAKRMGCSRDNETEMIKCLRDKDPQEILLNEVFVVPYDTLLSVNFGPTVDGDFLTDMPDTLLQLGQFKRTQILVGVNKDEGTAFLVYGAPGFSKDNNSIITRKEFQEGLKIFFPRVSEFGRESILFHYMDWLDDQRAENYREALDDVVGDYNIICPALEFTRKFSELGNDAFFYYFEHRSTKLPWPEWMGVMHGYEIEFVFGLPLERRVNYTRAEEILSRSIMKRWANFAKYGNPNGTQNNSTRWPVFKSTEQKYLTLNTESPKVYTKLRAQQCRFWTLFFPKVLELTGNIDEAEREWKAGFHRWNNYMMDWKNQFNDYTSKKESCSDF
T2 sequence (O42275 24-633): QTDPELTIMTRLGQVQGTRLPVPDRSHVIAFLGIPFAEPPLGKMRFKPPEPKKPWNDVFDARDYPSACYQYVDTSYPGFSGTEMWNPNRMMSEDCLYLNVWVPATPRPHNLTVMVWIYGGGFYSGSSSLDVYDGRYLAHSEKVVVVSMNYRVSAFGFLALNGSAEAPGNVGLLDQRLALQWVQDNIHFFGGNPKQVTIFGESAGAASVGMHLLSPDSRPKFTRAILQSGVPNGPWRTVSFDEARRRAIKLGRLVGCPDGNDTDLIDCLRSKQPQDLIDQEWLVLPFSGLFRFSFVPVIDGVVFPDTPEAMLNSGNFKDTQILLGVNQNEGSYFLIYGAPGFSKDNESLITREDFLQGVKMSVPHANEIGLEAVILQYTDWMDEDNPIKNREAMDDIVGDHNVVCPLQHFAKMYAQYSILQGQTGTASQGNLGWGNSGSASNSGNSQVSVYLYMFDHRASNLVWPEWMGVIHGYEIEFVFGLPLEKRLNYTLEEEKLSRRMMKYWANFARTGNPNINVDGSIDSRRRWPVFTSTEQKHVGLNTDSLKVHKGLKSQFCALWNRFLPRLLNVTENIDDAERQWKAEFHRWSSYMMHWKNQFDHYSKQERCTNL

Consider Aegyptinone A, for which, in series [1], the “cytotoxic activity against several cancer cell lines” value is recorded as “moderate”.

Consider `Cc1cc2c(cc(O)c1=O)C1(CO)CCCC(C)(C)C1CC2` (centres unmarked) [Compound 4, isograndifoliol], for which the “BChE Inhibition IC50” value in series [2] is recorded as “below one micromole”. Also, the inhibition at 10 µg/mL in series [2] (at 10.0 µg·mL^−1) was 98.6%; in series [3], at most 50%. In addition, the half-maximal inhibitory concentration (IC50) in series [2] was 0.9 µM and 0.893 µM and 0.89 µM; in series [3], > 340 µM and 343 µM. Besides, the Ki in series [4] was determined as 0.47 µM.

For `C[C@H]1COC2=C1C(=O)C(=O)c1c2ccc2c1CCCC2(C)C` [cryptotanshinone], in series [5], the cholinesterase inhibitory activity result was “only moderate”.

Take `C[C@H]1COC2=C1C(=O)C(=O)c1cc3c(cc12)C(C)(C)CCC3=O` [Compound 3, (R)-3,10,10-trimethyl-2,3,9,10-tetrahydroanthra[1,2-b]furan-4,5,7(8H)-trione]: in series [2] (at 10.0 µg·mL^−1), the “% Inhibition ± S.D. at 10.0 µg·mL^−1 BChE” value is reported as 87.3 ± 1.0% and the inhibition at 10 µg/mL worked out at 87.3%. Moreover, the 50% inhibitory concentration (IC50) in series [2] is 50.8 µM. For the same compound, in series [3], the inhibition at 10 µg/mL is at most 50% and the IC50 worked out at 330 µM. The Ki in series [4] is 30 µM.

For `CC(=O)O[C@@H]1CCC(C)(C)c2ccc3c(c21)C(=O)C(=O)C1=C3OC[C@@H]1C` [Compound 1, (1R,15R)-1-acetoxycryptotanshinone], in series [2] (at 10.0 µg·mL^−1), the “% Inhibition ± S.D. at 10.0 µg·mL^−1 BChE” value is 95.9 ± 0.0% and the inhibition at 10 µg/mL is 95.9%. Moreover, the half-inhibitory concentration (IC50) in series [2] was 2.4 µM and 2.37 µM. In series [4], the Ki was 1.34 µM.

For the compound `COc1ccc2c3c1O[C@H]1C[C@@H](O)C=C[C@@]31CCN(C)C2` [Galanthamine hydrobromide, reference compound], the inhibition at 10 µg/mL in series [2] came to 86.8 ± 2.9%.

As for `CC(=O)O[C@@H]1CCC(C)(C)c2ccc3c(c21)C(=O)C(=O)c1c(C)coc1-3` [Compound 2, (1R)-1-acetoxytanshinone IIA], in series [2] (at 10.0 µg·mL^−1), the “% Inhibition ± S.D. at 10.0 µg·mL^−1 BChE” value was 85.3 ± 4.3% and the inhibition at 10 µg/mL is 85.3%. Also, the 50% inhibitory concentration (IC50) in series [2] is 7.9 µM and 7.86 µM. Besides, the Ki in series [4] was 4.59 µM.
